Experimental data reported in patent US5567605A, “Assay for D-allose using a NAD cofactor coupled D-allose dehydrogenase” (UOP, priority 1994, dated 1996).
Several values for one entry are separate records, joined by “and”; a condition that tells them apart may be missing. Identical values can stand only once. Each block holds one molecule with its values, some of them ahead of it.

Legend:
D-allose dehydrogenase [1] = assay: NAD cofactor coupled D-allose dehydrogenase spectrophotometric enzyme assay (340 nm); format: biochemical, Exophiala pisciphila; details: for Activity (carbohydrate specificity): Sugar 100 mM as substrate, pH 9.0, 30° C., same dose of enzyme extract
Experimental: Soil and water samples were obtained from several sites and incubated with D-allose in a basic salts solution. The bacterial and fungal cultures were grown aerobically at 30° C. in a rotary incubator at 250 rpm. The basic salts growth medium contained: Na2 HPO4, 16 raM; KH2 PO4, 34 mM; (NH4)2 SO4, 15 mM; MgSO4, 1 mM; CaCl2, 0.1 mM; FeSO4, 0.01 mM and D-allose, 10 mM. The pH of the medium was 6.5. After growth in liquid, as determined by an increase in optical density, the cultures were streaked out on solid agar media containing D-allose as the growth substrate. […] After growth on D-allose, the individual cultures were harvested by centrifugation and the cells disrupted using a sonicator. Cell debris was removed by centrifugation and the crude cell extract was assayed for D-allose dehydrogenase enzymatic activity.
The enzyme assay was performed with a Beckman DU70 recording spectrophotometer using 340 nanometer wavelength light with 20 sec. interval readings for a 10 minute time period. Assays were run in 1 ml cuvettes at a constant temperature of 30° C. The instantaneous reaction rate was measured as the change in optical density per minute; activity was calculated at early reaction times when the changes in optical density were linear with time. The rate of enzyme reaction is directly proportional to the appearance of reduced NAD at 340 nm, because the enzyme oxidizes D-allose and transfers two protons from D-allose to NAD. The extinction coefficient of NADH2 (6.23 OD/1 mM solution) was used to convert the change in optical density per minute to micromoles of product. A standard curve of reaction rate versus substrate concentration was used to determine the D-allose concentration in unknown samples (FIG. 1). The Km of an enzyme is the concentration of substrate that gives one half maximal reaction rate and is thus a measure of the affinity of the enzyme for this substrate. The Vmax of an enzyme is the maximum rate of reaction that can be obtained where the substrate concentration is fully saturating the enzyme. […] An internal standard control using a 20 mM addition of D-allose to a duplicate unknown sample was used to determine if the sample interfered with D-allose measurement. If interference was detected, the unknown sample D-allose concentration was corrected for by the percent interference measured in the internal control sample.
The spectrophotometric enzyme reactions were performed in a 1 mL cuvette that contained the following. […]
The results of Table 1 were obtained at 30° C. using a solution containing 100 mM in D-allose.
In this series, a constant amount of enzyme extract was added to D-allose at various concentrations with the results summarized in Table 2.
In these experiments 1 mL of a 100 mM solution of various sugars were treated at pH 9.0 and 30° C. with the same dose of enzyme extract.

D-allose dehydrogenase [2] = assay: Visual qualitative D-allose assay with electron accepting dyes; format: biochemical, Exophiala pisciphila; details: phenozine methosulfate and nitro blue tetrazolium, phosphate buffer pH 8.0
From the text: The assay can be coupled with electron accepting dyes to form a visual qualitative D-allose assay. […] Control samples without D-allose remain light pink. The nature of the electron-accepting dye is not critical to the success of this qualitative assay; electron-accepting dyes are well known in the biochemical arts and are merely exemplified by the class of tetrazolium salts, one of which is nitro blue tetrazolium.
The visual D-allose assay contained: […]

[3] = animals and humans; cited from earlier work

Activity (carbohydrate specificity) (D-allose dehydrogenase [1]): < 0.07 µmol/min/mL
Structure (SMILES): O=C[C@H](O)[C@@H](O)[C@H](O)[C@H](O)CO [D-glucose, reference compound]

Activity (carbohydrate specificity) (D-allose dehydrogenase [1]): < 0.07 µmol/min/mL
Structure (SMILES): O=C[C@@H](O)[C@@H](O)[C@H](O)[C@H](O)CO [D-mannose, reference compound]

More lines, now with the values behind:

Structure (SMILES): O=C[C@H](O)[C@H](O)[C@H](O)CO [D-ribose, reference compound]
Activity (carbohydrate specificity) (D-allose dehydrogenase [1]): < 0.07 µmol/min/mL

Structure (SMILES): O=C[C@H](O)[C@H](O)[C@H](O)[C@H](O)CO [D-allose]
visual color change (D-allose dehydrogenase [2]): color change from light pink to dark blue
excretion [3]: easily excreted
metabolism [3]: not readily metabolized
Km (D-allose dehydrogenase [1]; 30° C., pH 9.0 glycine-NaOH, NAD 5 mM, read-out: apparent Km for the enzyme with D-allose as substrate): 77 mM
Activity (D-allose dehydrogenase [1]; Buffer 0.2 molar, initial pH 9.0, final pH 8.5, 100 mM D-allose, 30° C.): 2.35 µmol/min/mL
Activity (D-allose dehydrogenase [1]; Buffer 0.5 molar, initial pH 9.0, final pH 8.9, 100 mM D-allose, 30° C.): 2.56 µmol/min/mL
Activity (D-allose dehydrogenase [1]; Buffer 1.0 molar, initial pH 9.0, final pH 9.0, 100 mM D-allose, 30° C.): 2.75 µmol/min/mL
Activity (D-allose dehydrogenase [1]; Buffer 2.0 molar, initial pH 9.0, final pH 9.0, 100 mM D-allose, 30° C.): 3.13 µmol/min/mL
Activity (D-allose dehydrogenase [1]; D-allose 1 mM, constant amount of enzyme extract): 0.13 μmole/min/ml of extract
% Inhibition (D-allose dehydrogenase [1]; D-allose 10 mM in 20% human serum): 16%
Activity (D-allose dehydrogenase [1]; D-allose 10 mM, constant amount of enzyme extract): 0.80 μmole/min/ml of extract
Activity (D-allose dehydrogenase [1]; D-allose 100 mM, constant amount of enzyme extract): 3.07 μmole/min/ml of extract
Activity (D-allose dehydrogenase [1]; Enzyme Extract 20 μL, 100 mM D-allose, 30° C.): 0.09 µmol/min
Activity (D-allose dehydrogenase [1]; Enzyme Extract 50 μL, 100 mM D-allose, 30° C.): 0.15 µmol/min
Activity (D-allose dehydrogenase [1]; Enzyme Extract 100 μL, 100 mM D-allose, 30° C.): 0.26 µmol/min
Activity (carbohydrate specificity) (D-allose dehydrogenase [1]): 2.93 µmol/min/mL
Activity (D-allose dehydrogenase [1]; pH of assay buffer 8.0, 100 mM D-allose, 30° C.): < 0.05 µmol/min/mL
Activity (D-allose dehydrogenase [1]; pH of assay buffer 8.5, 100 mM D-allose, 30° C.): 0.78 µmol/min/mL
Activity (D-allose dehydrogenase [1]; pH of assay buffer 9.0, 100 mM D-allose, 30° C.): 2.38 µmol/min/mL and 2.31 µmol/min/mL
Activity (D-allose dehydrogenase [1]; pH of assay buffer 9.5, 100 mM D-allose, 30° C.): 0.10 µmol/min/mL
Activity (D-allose dehydrogenase [1]; pH of assay buffer 10.0, 100 mM D-allose, 30° C.): < 0.05 µmol/min/mL

Structure (SMILES): O=C[C@@H](O)[C@H](O)[C@H](O)[C@H](O)CO [D-altrose, reference compound]
Activity (carbohydrate specificity) (D-allose dehydrogenase [1]): < 0.07 µmol/min/mL
